Test results: the NIST ThermoML archive (doi:10.1021/je300775u)
Numbers after ± are expanded uncertainties.

Assay: xn = mol fraction of the nth substance listed
Conditions: 101 kPa, Liquid; for speed of sound: Pulse-echo method; for mass density: Vibrating tube method

## ClC(Cl)(Cl)Br [bromotrichloromethane] + CCCCCCC
293.15 K, x1 = 0.0527
  speed of sound: 1126.6 ± 0.9 m/s
  mass density: 731.54 ± 0.25 kg/m3
293.15 K, x1 = 0.1116
  speed of sound: 1100.3 ± 0.9 m/s
  mass density: 786.88 ± 0.24 kg/m3
293.15 K, x1 = 0.152
  speed of sound: 1083.8 ± 0.9 m/s
  mass density: 826.09 ± 0.24 kg/m3
293.15 K, x1 = 0.2038
  speed of sound: 1064.1 ± 0.9 m/s
  mass density: 878.08 ± 0.24 kg/m3
293.15 K, x1 = 0.2512
  speed of sound: 1047.4 ± 1 m/s
  mass density: 927.29 ± 0.25 kg/m3
293.15 K, x1 = 0.2988
  speed of sound: 1031.9 ± 1 m/s
  mass density: 978.53 ± 0.25 kg/m3
293.15 K, x1 = 0.3556
  speed of sound: 1015 ± 1 m/s
  mass density: 1041.97 ± 0.27 kg/m3
293.15 K, x1 = 0.4027
  speed of sound: 1001.9 ± 1 m/s
  mass density: 1096.65 ± 0.3 kg/m3
293.15 K, x1 = 0.4603
  speed of sound: 987.5 ± 1 m/s
  mass density: 1166.3 ± 0.34 kg/m3
293.15 K, x1 = 0.4989
  speed of sound: 978.4 ± 1 m/s
  mass density: 1214.82 ± 0.38 kg/m3
293.15 K, x1 = 0.5537
  speed of sound: 966.7 ± 1 m/s
  mass density: 1286.16 ± 0.43 kg/m3
293.15 K, x1 = 0.5961
  speed of sound: 958.4 ± 1.1 m/s
  mass density: 1343.68 ± 0.48 kg/m3
293.15 K, x1 = 0.6562
  speed of sound: 948 ± 1.1 m/s
  mass density: 1428.79 ± 0.56 kg/m3
293.15 K, x1 = 0.7088
  speed of sound: 940.1 ± 1.1 m/s
  mass density: 1506.86 ± 0.63 kg/m3
293.15 K, x1 = 0.7486
  speed of sound: 934.8 ± 1.1 m/s
  mass density: 1568.29 ± 0.7 kg/m3
293.15 K, x1 = 0.8001
  speed of sound: 929 ± 1.1 m/s
  mass density: 1651.09 ± 0.79 kg/m3
293.15 K, x1 = 0.8456
  speed of sound: 924.6 ± 1.2 m/s
  mass density: 1727.53 ± 0.89 kg/m3
293.15 K, x1 = 0.899
  speed of sound: 920.6 ± 1.2 m/s
  mass density: 1821.57 ± 1 kg/m3
293.15 K, x1 = 0.9521
  speed of sound: 918 ± 1.2 m/s
  mass density: 1919.55 ± 1.1 kg/m3
293.15 K, x1 = 1
  speed of sound: 917.1 ± 1.2 m/s
  mass density: 2013.06 ± 1.2 kg/m3
298.15 K, x1 = 0.0527
  speed of sound: 1105.8 ± 0.9 m/s
  mass density: 727.03 ± 0.25 kg/m3
298.15 K, x1 = 0.1116
  speed of sound: 1080.2 ± 0.9 m/s
  mass density: 782.07 ± 0.24 kg/m3
298.15 K, x1 = 0.152
  speed of sound: 1064.4 ± 0.9 m/s
  mass density: 821.09 ± 0.24 kg/m3
298.15 K, x1 = 0.2038
  speed of sound: 1045.2 ± 0.9 m/s
  mass density: 872.78 ± 0.24 kg/m3
298.15 K, x1 = 0.2512
  speed of sound: 1028.9 ± 1 m/s
  mass density: 921.75 ± 0.25 kg/m3
298.15 K, x1 = 0.2988
  speed of sound: 1013.7 ± 1 m/s
  mass density: 972.69 ± 0.25 kg/m3
298.15 K, x1 = 0.3556
  speed of sound: 997.3 ± 1 m/s
  mass density: 1035.81 ± 0.27 kg/m3
298.15 K, x1 = 0.4027
  speed of sound: 984.7 ± 1 m/s
  mass density: 1090.21 ± 0.3 kg/m3
298.15 K, x1 = 0.4603
  speed of sound: 970.6 ± 1 m/s
  mass density: 1159.5 ± 0.34 kg/m3
298.15 K, x1 = 0.4989
  speed of sound: 962 ± 1 m/s
  mass density: 1207.8 ± 0.37 kg/m3
298.15 K, x1 = 0.5537
  speed of sound: 950.6 ± 1 m/s
  mass density: 1278.76 ± 0.43 kg/m3
298.15 K, x1 = 0.5961
  speed of sound: 942.8 ± 1.1 m/s
  mass density: 1336 ± 0.48 kg/m3
298.15 K, x1 = 0.6562
  speed of sound: 932.8 ± 1.1 m/s
  mass density: 1420.68 ± 0.55 kg/m3
298.15 K, x1 = 0.7088
  speed of sound: 925.2 ± 1.1 m/s
  mass density: 1498.38 ± 0.63 kg/m3
298.15 K, x1 = 0.7486
  speed of sound: 920 ± 1.1 m/s
  mass density: 1559.53 ± 0.69 kg/m3
298.15 K, x1 = 0.8001
  speed of sound: 914.5 ± 1.1 m/s
  mass density: 1641.91 ± 0.78 kg/m3
298.15 K, x1 = 0.8456
  speed of sound: 910.4 ± 1.1 m/s
  mass density: 1717.98 ± 0.88 kg/m3
298.15 K, x1 = 0.899
  speed of sound: 906.7 ± 1.2 m/s
  mass density: 1811.56 ± 1 kg/m3
298.15 K, x1 = 0.9521
  speed of sound: 904.4 ± 1.2 m/s
  mass density: 1909.09 ± 1.1 kg/m3
298.15 K, x1 = 1
  speed of sound: 903.6 ± 1.2 m/s
  mass density: 2002.14 ± 1.2 kg/m3
303.15 K, x1 = 0.0527
  speed of sound: 1085.1 ± 0.9 m/s
303.15 K, x1 = 0.1116
  speed of sound: 1060.4 ± 0.9 m/s
303.15 K, x1 = 0.152
  speed of sound: 1044.9 ± 0.9 m/s
303.15 K, x1 = 0.2038
  speed of sound: 1026 ± 0.9 m/s
303.15 K, x1 = 0.2512
  speed of sound: 1010.4 ± 0.9 m/s
303.15 K, x1 = 0.2988
  speed of sound: 995.8 ± 1 m/s
303.15 K, x1 = 0.3556
  speed of sound: 979.7 ± 1 m/s
303.15 K, x1 = 0.4027
  speed of sound: 967.5 ± 1 m/s
303.15 K, x1 = 0.4603
  speed of sound: 953.9 ± 1 m/s
303.15 K, x1 = 0.4989
  speed of sound: 945.5 ± 1 m/s
303.15 K, x1 = 0.5537
  speed of sound: 934.7 ± 1 m/s
303.15 K, x1 = 0.5961
  speed of sound: 927.1 ± 1.1 m/s
303.15 K, x1 = 0.6562
  speed of sound: 917.4 ± 1.1 m/s
303.15 K, x1 = 0.7088
  speed of sound: 910.3 ± 1.1 m/s
303.15 K, x1 = 0.7486
  speed of sound: 905.3 ± 1.1 m/s
303.15 K, x1 = 0.8001
  speed of sound: 900.1 ± 1.1 m/s
303.15 K, x1 = 0.8456
  speed of sound: 896.2 ± 1.1 m/s
303.15 K, x1 = 0.899
  speed of sound: 892.8 ± 1.2 m/s
303.15 K, x1 = 0.9521
  speed of sound: 890.7 ± 1.2 m/s
303.15 K, x1 = 1
  speed of sound: 890.2 ± 1.2 m/s
